# Laboratory results published in patent US20260284065A1, “PHARMACEUTICAL COMPOSITION FOR PREVENTION OR TREATMENT OF CANCER FOR OVERCOMING RESISTANCE TO IMMUNE CHECKPOINT INHIBITORS” (AJOU UNIVERSITY INDUSTRY-ACADEMIC COOPERATION FOUNDATION, priority 2023, published 2026).
# Test system: mouse gastric cancer cell line YTN16
# Experiment: YTN16 syngeneic mouse model: subcutaneous tumor size and tumor weight
# Format: in vivo
# Protocol: The experiment was conducted by dividing the mice into a control group (Control), a group administered with Comparative Example 1 (Anti-PD-1), a group administered with Comparative Example 2 (CCB-3233), and a group administered with Example 1 (Anti-PD-1+CCB-3233), and eight mouse models were used for each group.
# Comparative Example 1 (Anti-PD-1) was diluted in 1×PBS at a concentration of 10 mg/kg and administered intraperitoneally to the mice, Comparative Example 2 (CCB-3233) was orally administered to the mice at a concentration of 50 mg/kg by dissolving 5% DMSO+5% CMC-NA in 1×PBS, and Example 1 (Anti-PD-1+CCB-3233) was diluted and prepared in different solvents as in Comparative Examples 1 and 2, and then administered sequentially.
compound,measurement,setting,value
COc1cc2c(Oc3ccc(Nc4nn(C)cc4C(=O)NC4CCCCC4)cc3F)ccnc2cc1OCCCN1CCOCC1 [Comparative Example 2],therapeutic effect of the immune checkpoint inhibitor,CCB-3233 administered together with the immune checkpoint inhibitor to YTN 16 syngeneic mice resistant to the immune checkpoint inhibitor,enhanced
same,tumor weight (FIG. 2),"YTN16 syngeneic mice, anti-PD-1 10 mg/kg intraperitoneally, CCB-3233 50 mg/kg orally, compared between groups",no significant difference in tumor weight from the control group
